Activity calls are given as the source filed them. No cut-off for these calls is given here.
Key:
Toxocara canis [1] = test: Larvicidal activity against Toxocara canis larvae at 1 mg/ml after 48 hrs by trypan blue assay relative to control; type: functional
Toxocara canis [2] = test: Larvicidal activity against Toxocara canis larvae infected in BALB/c mouse at 1 mg/ml after 12 hrs; type: functional
[3] = Cytotoxicity against C57BL/6 mouse peritoneal macrophages at 0.025 to 0.05 mg/ml after 48 hrs by LDH release assay; type: cell-based; details: peritoneal macrophage cell
[4] = Cytotoxicity against C57BL/6 mouse peritoneal macrophages at 0.025 to 0.05 mg/ml after 48 hrs by MTT assay; type: cell-based, Peritoneal macrophage cell; details: read-out: MLC
Toxocara canis [5] = test: Larvicidal activity against Toxocara canis larvae infected in BALB/c mouse at 0.05 mg/ml after 12 hrs; type: functional
Toxocara canis [6] = test: Larvicidal activity against Toxocara canis larvae infected in BALB/c mouse at 40 mg/kg after 12 hrs; type: functional, organism-based

| Structure (SMILES) | Activity (Toxocara canis [1]) [%] | Activity (Toxocara canis [2]) | Activity [3] [%] | MCC at 48 h [4] [µg/mL] | Activity (Toxocara canis [5]) | Activity (Toxocara canis [6]) |
| --- | --- | --- | --- | --- | --- | --- |
| CCCCCC[C@@H](O)C/C=C\CCCCCCCC(=O)NCc1ccccc1 | 100 | Active |  |  |  |  |
| CCCCCCCC/C=C\CCCCCCCC(=O)N[C@H](C)c1ccccc1 | 100 | Active |  |  |  |  |
| CCCCCC[C@@H](O)C/C=C\CCCCCCCC(=O)N[C@H](C)c1ccccc1 | 100 | Active |  |  |  |  |
| CCCCCC[C@@H](O)C/C=C\CCCCCCCC(=O)NN1CCCC1 | 100 | Active |  |  |  |  |
| CCCCCCCC/C=C\CCCCCCCC(=O)NC(C)c1ccccc1 (centres undefined) | 100 | Active |  |  |  |  |
| CCCCCCCC/C=C\CCCCCCCC(=O)NN1CCOCC1 | 100 | Active |  |  |  |  |
| CCCCC/C=C\C/C=C\CCCCCCCC(=O)N[C@@H](C)c1ccccc1 | 100 | Active |  |  |  |  |
| CCCCCC[C@@H](O)C/C=C\CCCCCCCC(=O)N[C@@H](C)c1ccccc1 | 100 | Active |  |  |  |  |
| CCCCCCCCCCCCCCCCCC(=O)N[C@H](C)c1ccccc1 | 100 | Active |  |  |  |  |
| CCCCC/C=C\C/C=C\CCCCCCCC(=O)NN1CCCC1 | 100 |  | 27 | 50 | Active |  |
| CCCCCCCCCCCCCCCCCC(=O)N[C@@H](C)c1ccccc1 | 100 | Active |  |  |  |  |
| CCCCCCCC/C=C\CCCCCCCC(=O)N[C@@H](C)c1ccccc1 | 100 | Active |  |  |  |  |
| CCCCC/C=C\C/C=C\CCCCCCCC(=O)N[C@H](C)c1ccccc1 | 100 | Active |  |  |  |  |
| CCCCCCCCCCCCCCCC(=O)N[C@H](C)c1ccccc1 | 100 | Active |  |  |  |  |
| CCCSc1ccc2[nH]c(NC(=O)OC)nc2c1 [ALBENDAZOLE] | 100 |  |  |  |  | Active |
| CCCCCC[C@@H](O)C/C=C\CCCCCCCC(=O)NN1CCOCC1 | 100 | Active |  |  |  |  |

From ChEMBL document CHEMBL3751786, “Toxocara canis: Larvicidal activity of fatty acid amides” (Bioorg Med Chem Lett, 2016)
